Results: PubChem BioAssay AID1918946 (Molecular Pharmacology Branch, DTP, NCI, 2023)
“And” between values parts separate entries of the source, which are not always exact repeats. Equal entries are not always repeated. One block for each compound: values may come before it.

Tested on: 885512-296-R-J2-PDC complex spheroid viability
Assay: Anticancer human tumor 885512-296-R-J2-PDC patient-derived breast carcinoma cell line growth inhibition
Conditions: for viability, T/C: stronger effect = lower value
How it was run: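 Complex spheroids of tumor cells with HUVEC and human MSCs, exposed to iadademstat combined with other agents. Each agent tested in half-log steps from near clinical Cmax (else 10 microM top), DMSO ≤0.25%.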

[1] = curve of first compound, second compound 0.1 µM
[2] = curve of first compound, second compound 0.316 µM
[3] = curve of first compound, second compound 1 µM
[4] = curve of first compound, second compound 3.16 µM
[5] = curve of first compound, second compound 10 µM
[6] = second compound 0.1 µM, first compound 0.0316 µM
[7] = second compound 0.1 µM, first compound 0.1 µM
[8] = second compound 0.316 µM, first compound 0.0316 µM
[9] = second compound 0.316 µM, first compound 0.1 µM
[10] = second compound 1 µM, first compound 0.0316 µM
[11] = second compound 1 µM, first compound 0.1 µM
[12] = second compound 3.16 µM, first compound 0.0316 µM
[13] = second compound 3.16 µM, first compound 0.1 µM
[14] = second compound 10 µM, first compound 0.0316 µM
[15] = second compound 10 µM, first compound 0.1 µM
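Also: spheroids exposed to agents for 7 days before viability read.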

SMILES: CC1(C)CCC(CN2CCN(c3ccc(C(=O)NS(=O)(=O)c4ccc(NCC5CCOCC5)c([N+](=O)[O-])c4)c(Oc4cnc5[nH]ccc5c4)c3)CC2)=C(c2ccc(Cl)cc2)C1 + NC1CC1c1ccc(-c2cccc(O)c2)cc1
IC50 [1]: 1780 nM
IC50 [2]: 1820 nM
IC50 [3]: 1850 nM
IC50 [4]: 1530 nM
IC50 [5]: 994 nM
viability, T/C [6]: 118%
viability, T/C [7]: 111%
viability, T/C (second compound 0.1 µM, first compound 0.316 µM): 105%
viability, T/C (second compound 0.1 µM, first compound 1 µM): 76.4%
viability, T/C (second compound 0.1 µM, first compound 3.16 µM): 23.9%
viability, T/C (second compound 0.1 µM, first compound 10 µM): 0.12%
viability, T/C [8]: 122%
viability, T/C [9]: 112%
viability, T/C (second compound 0.316 µM, first compound 0.316 µM): 105%
viability, T/C (second compound 0.316 µM, first compound 1 µM): 82.3%
viability, T/C (second compound 0.316 µM, first compound 3.16 µM): 20.8%
viability, T/C (second compound 0.316 µM, first compound 10 µM): 0.11%
viability, T/C [10]: 115%
viability, T/C [11]: 116%
viability, T/C (second compound 1 µM, first compound 0.316 µM): 105%
viability, T/C (second compound 1 µM, first compound 1 µM): 79.9%
viability, T/C (second compound 1 µM, first compound 3.16 µM): 24.4%
viability, T/C (second compound 1 µM, first compound 10 µM): 0.22%
viability, T/C [12]: 103%
viability, T/C [13]: 103%
viability, T/C (second compound 3.16 µM, first compound 0.316 µM): 101%
viability, T/C (second compound 3.16 µM, first compound 1 µM): 68.4%
viability, T/C (second compound 3.16 µM, first compound 3.16 µM): 17.6%
viability, T/C (second compound 3.16 µM, first compound 10 µM): 0.11%
viability, T/C [14]: 83.1%
viability, T/C [15]: 78.8%
viability, T/C (second compound 10 µM, first compound 0.316 µM): 70.5%
viability, T/C (second compound 10 µM, first compound 1 µM): 52.1%
viability, T/C (second compound 10 µM, first compound 3.16 µM): 12.4%
viability, T/C (second compound 10 µM, first compound 10 µM): 0.15%

IC50 (curve of compound): 0.41 nM and 0.678 nM
SMILES: CC[C@@]1(O)C(=O)OCc2c1cc1n(c2=O)Cc2cc3c(CN(C)C)c(O)ccc3nc2-1
viability, T/C (compound 0.000316 µM): 59.8% and 76.7%
viability, T/C (compound 0.001 µM): 16.6% and 36.4%
viability, T/C (compound 0.00316 µM): 8.16% and 3.47%
viability, T/C (compound 0.01 µM): 7.89% and 3.58%
viability, T/C (compound 0.0316 µM): 9.39% and 2.75%
viability, T/C (compound 0.1 µM): 9.51% and 1.92%

SMILES: Cn1ncnc1C1c2n[nH]c(=O)c3cc(F)cc(c23)NC1c1ccc(F)cc1 (configuration not stated) + NC1CCC(NC2CC2c2ccccc2)CC1
IC50 [1]: 16 nM
IC50 [2]: 25 nM
IC50 [3]: 27.6 nM
IC50 [4]: 27.3 nM
IC50 [5]: 14.2 nM
viability, T/C (second compound 0.1 µM, first compound 0.000316 µM): 140%
viability, T/C (second compound 0.1 µM, first compound 0.001 µM): 105%
viability, T/C (second compound 0.1 µM, first compound 0.00316 µM): 77.6%
viability, T/C (second compound 0.1 µM, first compound 0.01 µM): 67.2%
viability, T/C [6]: 37.7%
viability, T/C [7]: 10.2%
viability, T/C (second compound 0.316 µM, first compound 0.000316 µM): 122%
viability, T/C (second compound 0.316 µM, first compound 0.001 µM): 113%
viability, T/C (second compound 0.316 µM, first compound 0.00316 µM): 81.6%
viability, T/C (second compound 0.316 µM, first compound 0.01 µM): 79%
viability, T/C [8]: 44%
viability, T/C [9]: 13.3%
viability, T/C (second compound 1 µM, first compound 0.000316 µM): 108%
viability, T/C (second compound 1 µM, first compound 0.001 µM): 105%
viability, T/C (second compound 1 µM, first compound 0.00316 µM): 89.6%
viability, T/C (second compound 1 µM, first compound 0.01 µM): 76.7%
viability, T/C [10]: 44.6%
viability, T/C [11]: 28.5%
viability, T/C (second compound 3.16 µM, first compound 0.000316 µM): 106%
viability, T/C (second compound 3.16 µM, first compound 0.001 µM): 104%
viability, T/C (second compound 3.16 µM, first compound 0.00316 µM): 86.1%
viability, T/C (second compound 3.16 µM, first compound 0.01 µM): 75.2%
viability, T/C [12]: 44.5%
viability, T/C [13]: 28.6%
viability, T/C (second compound 10 µM, first compound 0.000316 µM): 92%
viability, T/C (second compound 10 µM, first compound 0.001 µM): 85%
viability, T/C (second compound 10 µM, first compound 0.00316 µM): 72%
viability, T/C (second compound 10 µM, first compound 0.01 µM): 56.8%
viability, T/C [14]: 36%
viability, T/C [15]: 18.6%
